#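 Dose response: 5 concentrations. Exposure: 48 h. Format: 96-well plates. Endpoint: linear interpolation; highest concentration if not reached. Definition used: TGI = concentration required for complete inhibition of growth.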
# Assays:
# Assay in all cases: NCI tumour cell line growth inhibition, 48 h
# U251 CNS = test system: U251 CNS
# SK-MEL-2 melanoma = test system: SK-MEL-2 melanoma
# SF-295 CNS = test system: SF-295 CNS
# KM12 colon = test system: KM12 colon
# HL-60(TB) leukemia = test system: HL-60(TB) leukemia
# HCT-15 colon = test system: HCT-15 colon
# COLO 205 colon = test system: COLO 205 colon
# UACC-257 melanoma = test system: UACC-257 melanoma
# SF-268 CNS = test system: SF-268 CNS
# EKVX NSCLC = test system: EKVX NSCLC
# TK-10 renal = test system: TK-10 renal
# SK-OV-3 ovarian = test system: SK-OV-3 ovarian
# A498 renal = test system: A498 renal
# NCI-H460 lung = test system: NCI-H460 lung
# SNB-78 CNS = test system: SNB-78 CNS
# T-47D breast = test system: T-47D breast
# SW-620 colon = test system: SW-620 colon
# NCI-H23 lung = test system: NCI-H23 lung
# RPMI-8226 leukemia = test system: RPMI-8226 leukemia
# UO-31 renal = test system: UO-31 renal
# MOLT-4 leukemia = test system: MOLT-4 leukemia
# SR leukemia = test system: SR leukemia
# OVCAR-4 ovarian = test system: OVCAR-4 ovarian
# SK-MEL-28 melanoma = test system: SK-MEL-28 melanoma
# A549 NSCLC = test system: A549 NSCLC
# SK-MEL-5 melanoma = test system: SK-MEL-5 melanoma
# OVCAR-5 ovarian = test system: OVCAR-5 ovarian
# BT-549 breast = test system: BT-549 breast
# NCI-H522 lung = test system: NCI-H522 lung
# SN12C renal = test system: SN12C renal
# CCRF-CEM leukemia = test system: CCRF-CEM leukemia
# M14 melanoma = test system: M14 melanoma
# 786-0 renal = test system: 786-0 renal
# SNB-75 CNS = test system: SNB-75 CNS
# HS 578T breast = test system: HS 578T breast
# IGROV1 ovarian = test system: IGROV1 ovarian
# M19-MEL melanoma = test system: M19-MEL melanoma
# MALME-3M melanoma = test system: MALME-3M melanoma
# DMS 273 small cell lung = test system: DMS 273 small cell lung
# K-562 leukemia = test system: K-562 leukemia
# LXFL 529 NSCLC = test system: LXFL 529 NSCLC
# OVCAR-8 ovarian = test system: OVCAR-8 ovarian
# ACHN renal = test system: ACHN renal
# SNB-19 CNS = test system: SNB-19 CNS
# NCI-H226 lung = test system: NCI-H226 lung
# LOX IMVI melanoma = test system: LOX IMVI melanoma
# HOP-92 NSCLC = test system: HOP-92 NSCLC
# DMS 114 small cell lung = test system: DMS 114 small cell lung
# MCF7 breast = test system: MCF7 breast
# MDA-MB-435 = test system: MDA-MB-435
# DLD-1 colon = test system: DLD-1 colon
# RXF 393 renal = test system: RXF 393 renal
# HCT-116 colon = test system: HCT-116 colon
# UACC-62 melanoma = test system: UACC-62 melanoma
# KM20L2 colon = test system: KM20L2 colon
# DU-145 prostate = test system: DU-145 prostate
# HCC-2998 colon = test system: HCC-2998 colon
# HOP-62 NSCLC = test system: HOP-62 NSCLC
# HT29 colon = test system: HT29 colon
# CAKI-1 renal = test system: CAKI-1 renal
# OVCAR-3 ovarian = test system: OVCAR-3 ovarian
# XF 498 CNS = test system: XF 498 CNS
# SF-539 CNS = test system: SF-539 CNS
smiles,measurement,setting,value
O=C(Nc1cccc(C(F)(F)F)c1)C(=O)C(C(=O)c1ccc2ccccc2c1)C1OC(=O)c2ccccc21 (stereo not drawn),TGI,U251 CNS,17.4 µM
same,TGI,SK-MEL-2 melanoma,15.8 µM
same,TGI,SF-295 CNS,23.4 µM
same,TGI,KM12 colon,29 µM
same,TGI,HL-60(TB) leukemia,40.9 µM
same,TGI,HCT-15 colon,32.2 µM
same,TGI,COLO 205 colon,38.9 µM
same,TGI,UACC-257 melanoma,15.9 µM
same,TGI,SF-268 CNS,49.1 µM
same,TGI,EKVX NSCLC,27.5 µM
same,TGI,TK-10 renal,48 µM
same,TGI,SK-OV-3 ovarian,> 100 µM
same,TGI,A498 renal,20.3 µM
same,TGI,NCI-H460 lung,36.3 µM
same,TGI,SNB-78 CNS,26.6 µM
same,TGI,T-47D breast,84.8 µM
same,TGI,SW-620 colon,37 µM
same,TGI,NCI-H23 lung,17.7 µM
same,TGI,RPMI-8226 leukemia,60.6 µM
same,TGI,UO-31 renal,20.6 µM
same,TGI,MOLT-4 leukemia,11.1 µM
same,TGI,SR leukemia,16 µM
same,TGI,OVCAR-4 ovarian,> 42.7 µM
same,TGI,SK-MEL-28 melanoma,15.7 µM
same,TGI,A549 NSCLC,78.3 µM
same,TGI,SK-MEL-5 melanoma,24.4 µM
same,TGI,OVCAR-5 ovarian,31.5 µM
same,TGI,BT-549 breast,93.9 µM
same,TGI,NCI-H522 lung,25.6 µM
same,TGI,SN12C renal,36.9 µM
same,TGI,CCRF-CEM leukemia,29.1 µM
same,TGI,M14 melanoma,34.4 µM
same,TGI,786-0 renal,15.9 µM
same,TGI,SNB-75 CNS,30.6 µM
same,TGI,HS 578T breast,45.2 µM
same,TGI,IGROV1 ovarian,71.6 µM
same,TGI,M19-MEL melanoma,31.1 µM
same,TGI,MALME-3M melanoma,17 µM
same,TGI,DMS 273 small cell lung,> 100 µM
same,TGI,K-562 leukemia,> 73.7 µM
same,TGI,LXFL 529 NSCLC,20.8 µM
same,TGI,OVCAR-8 ovarian,35.6 µM
same,TGI,ACHN renal,73.5 µM
same,TGI,SNB-19 CNS,25.8 µM
same,TGI,NCI-H226 lung,11.5 µM
same,TGI,LOX IMVI melanoma,20.7 µM
same,TGI,HOP-92 NSCLC,> 100 µM
same,TGI,DMS 114 small cell lung,17.1 µM
same,TGI,MCF7 breast,45.8 µM
same,TGI,MDA-MB-435,> 100 µM
same,TGI,DLD-1 colon,23.4 µM
same,TGI,RXF 393 renal,11.9 µM
same,TGI,HCT-116 colon,21.2 µM
same,TGI,UACC-62 melanoma,19.1 µM
same,TGI,KM20L2 colon,33.5 µM
same,TGI,DU-145 prostate,81.2 µM
same,TGI,HCC-2998 colon,23.5 µM
same,TGI,HOP-62 NSCLC,36.8 µM
same,TGI,HT29 colon,38.2 µM
same,TGI,CAKI-1 renal,> 100 µM
same,TGI,OVCAR-3 ovarian,55.6 µM
same,TGI,XF 498 CNS,12.3 µM
same,TGI,SF-539 CNS,10.2 µM

# Source: PubChem BioAssay (NCI)
